Data published in patent US10597388B2, “Pyridazinone herbicides” (FMC CORPORATION, priority 2014, dated 2020).

Experiments:
Assay in all cases: Test E greenhouse herbicide test, pre- and postemergence
Assay type in all cases: in vivo
[1] = test system: beggarticks (hairy beggarticks, Bidens pilosa)
In short: (§1)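 Seedlings reaching 2–18 cm (1- to 4-leaf stage) received foliar treatment, while seeds in silt loam received a soil surface spray; the vehicle in each case was a non-phytotoxic solvent mixture including surfactant. Visual scoring versus controls followed 14–21 d later on a 0–100 scale.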

[2] = test system: field bindweed (Convolvulus arvensis)
In short: as §1

kochia (Kochia scoparia) = test system: kochia (Kochia scoparia)
In short: as §1

[3] = test system: pigweed, palmer (palmer pigweed, Amaranthus palmeri)
In short: as §1

[4] = test system: waterhemp (common waterhemp, Amaranthus rudis)
In short: as §1

[5] = test system: crabgrass, large (large crabgrass, Digitaria sanguinalis); details: Preemergence
In short: as §1

[6] = test system: foxtail, giant (giant foxtail, Setaria faberii); details: Preemergence
In short: as §1

[7] = test system: johnsongrass (Sorghum halepense); details: Preemergence
In short: as §1

[8] = test system: lambsquarters (Chenopodium album); details: Preemergence
In short: as §1

[9] = test system: surinam grass (Brachiaria decumbens); details: Preemergence
In short: as §1

[10] = test system: velvetleaf (Abutilon theophrasti); details: Preemergence
In short: as §1

[11] = 62 g ai/ha, Postemergence, scale 0 to 100 (0 no effect, 100 complete control)
[12] = 125 g ai/ha, Postemergence, scale 0 to 100 (0 no effect, 100 complete control)
[13] = Postemergence, 16 g ai/ha, visual, scale 0 no effect to 100 complete control
[14] = Postemergence, 31 g ai/ha, visual, scale 0 no effect to 100 complete control
[15] = 62 g ai/ha, Preemergence, scale 0 to 100 (0 no effect, 100 complete control)
[16] = 250 g ai/ha, Postemergence, scale 0 to 100 (0 no effect, 100 complete control)
[17] = Preemergence, 31 g ai/ha, scale 0 to 100, 0 no effect, 100 complete control
[18] = Preemergence, 125 g ai/ha, visual, scale 0 no effect to 100 complete control
[19] = Preemergence, 250 g ai/ha, visual, scale 0 no effect to 100 complete control
[20] = 62 g ai/ha, scale 0 to 100 (0 no effect, 100 complete control)
[21] = 31 g ai/ha, scale 0 to 100, 0 no effect, 100 complete control
[22] = 125 g ai/ha, visual, scale 0 no effect to 100 complete control
[23] = 250 g ai/ha, visual, scale 0 no effect to 100 complete control
[24] = 125 g ai/ha, Preemergence, scale 0 to 100 (0 no effect, 100 complete control)
[25] = 125 g ai/ha, scale 0 to 100 (0 no effect, 100 complete control)

Q: Which results are given for `CC(=O)Oc1c(C)nn(C)c(=O)c1-c1c(C)cc(C)c2ccccc12` [Compound 99]?
A: Plant response rating, Beggarticks [1, 11]: 100; Plant response rating, Beggarticks [1, 12]: 95; Plant response rating, Beggarticks [1, 13]: 70; Plant response rating, Beggarticks [1, 14]: 80; Plant response rating, Field Bindweed [2, 11]: 70; Plant response rating, Field Bindweed [2, 12]: 80; Plant response rating, Field Bindweed [2, 13]: 50; Plant response rating, Field Bindweed [2, 14]: 60; Plant response rating, Kochia (kochia (Kochia scoparia); [11]): 60; Plant response rating, Kochia (kochia (Kochia scoparia); [12]): 70; Plant response rating, Kochia (kochia (Kochia scoparia); [13]): 55; Plant response rating, Kochia (kochia (Kochia scoparia); [14]): 50; Plant response rating, Pigweed, Palmer [3, 11]: 30; Plant response rating, Pigweed, Palmer [3, 12]: 50; Plant response rating, Pigweed, Palmer [3, 13]: 5; Plant response rating, Pigweed, Palmer [3, 14]: 10; Plant response rating, Waterhemp [4, 12]: 75; Plant response rating, Waterhemp [4, 13]: 65; Plant response rating, Waterhemp [4, 14]: 45

Q: With `Cn1nc(Br)c(O)c(-c2cccc3ccccc23)c1=O` [Compound 20] as the molecule, how does the “Plant response rating, Beggarticks” value [1, 11] read?
A: The value was 95.

Q: What about the “Plant response rating, Beggarticks” value [1, 15] of the same molecule?
A: The value was 85.

Q: What about the “Plant response rating, Beggarticks” value [1, 12] of the same molecule?
A: Its value is 98.

Q: And the “Plant response rating, Beggarticks” value [1, 16]?
A: Its value is 100.

Q: What about the “Plant response rating, Beggarticks” value [1, 14] of the same molecule?
A: Its value is 85.

Q: And the “Plant response rating, Beggarticks” value [1, 17]?
A: The value was 20.

Q: And the “Plant response rating, Beggarticks” value [1, 18]?
A: The value was 95.

Q: What about the “Plant response rating, Beggarticks” value [1, 19] of the same molecule?
A: Its value is 98.

Q: What about the “Plant response rating, Crabgrass, Large” value [5, 20] of the same molecule?
A: Its value is 35.

Q: And the “Plant response rating, Crabgrass, Large” value [5, 21]?
A: The value was 30.

Q: And the “Plant response rating, Crabgrass, Large” value [5, 22]?
A: Its value is 35.

Q: What about the “Plant response rating, Crabgrass, Large” value [5, 23] of the same molecule?
A: Its value is 30.

Q: What about the “Plant response rating, Field Bindweed” value [2, 11] of the same molecule?
A: Its value is 85.

Q: And the “Plant response rating, Field Bindweed” value [2, 15]?
A: Its value is 65.

Q: And the “Plant response rating, Field Bindweed” value [2, 12]?
A: The value was 90.

Q: And the “Plant response rating, Field Bindweed” value [2, 16]?
A: The value was 95.

Q: What about the “Plant response rating, Field Bindweed” value [2, 14] of the same molecule?
A: Its value is 75.

Q: What about the “Plant response rating, Field Bindweed” value [2, 17] of the same molecule?
A: The value was 35.

Q: And the “Plant response rating, Field Bindweed” value [2, 18]?
A: The value was 85.

Q: And the “Plant response rating, Field Bindweed” value [2, 19]?
A: The value was 95.

Q: And the “Plant response rating, Foxtail, Giant” value [6, 20]?
A: Its value is 20.

Q: And the “Plant response rating, Foxtail, Giant” value [6, 21]?
A: Its value is 5.

Q: What about the “Plant response rating, Foxtail, Giant” value [6, 22] of the same molecule?
A: Its value is 75.

Q: And the “Plant response rating, Foxtail, Giant” value [6, 23]?
A: The value was 90.

Q: What about the “Plant response rating, Johnsongrass” value [7, 21] of the same molecule?
A: The value was 0.

Q: What about the “Plant response rating, Johnsongrass” value [7, 23] of the same molecule?
A: Its value is 0.

Q: And the “Plant response rating, Kochia” value (kochia (Kochia scoparia); [11])?
A: Its value is 65.

Q: What about the “Plant response rating, Kochia” value (kochia (Kochia scoparia); [15]) of the same molecule?
A: The value was 90.

Q: And the “Plant response rating, Kochia” value (kochia (Kochia scoparia); [12])?
A: The value was 75.

Q: And the “Plant response rating, Kochia” value (kochia (Kochia scoparia); [16])?
A: The value was 90.

Q: What about the “Plant response rating, Kochia” value (kochia (Kochia scoparia); [14]) of the same molecule?
A: Its value is 60.

Q: What about the “Plant response rating, Kochia” value (kochia (Kochia scoparia); [17]) of the same molecule?
A: Its value is 0.

Q: What about the “Plant response rating, Kochia” value (kochia (Kochia scoparia); [18]) of the same molecule?
A: The value was 98.

Q: What about the “Plant response rating, Kochia” value (kochia (Kochia scoparia); [19]) of the same molecule?
A: The value was 100.

Q: What about the “Plant response rating, Lambsquarters” value [8, 20] of the same molecule?
A: The value was 95.

Q: And the “Plant response rating, Lambsquarters” value [8, 21]?
A: Its value is 70.

Q: And the “Plant response rating, Lambsquarters” value [8, 22]?
A: The value was 95.

Q: What about the “Plant response rating, Lambsquarters” value [8, 23] of the same molecule?
A: Its value is 100.

Q: What about the “Plant response rating, Pigweed, Palmer” value [3, 11] of the same molecule?
A: The value was 35.

Q: What about the “Plant response rating, Pigweed, Palmer” value [3, 15] of the same molecule?
A: The value was 0.

Q: What about the “Plant response rating, Pigweed, Palmer” value [3, 12] of the same molecule?
A: The value was 55.

Q: And the “Plant response rating, Pigweed, Palmer” value [3, 24]?
A: Its value is 5.

Q: What about the “Plant response rating, Pigweed, Palmer” value [3, 16] of the same molecule?
A: Its value is 70.

Q: What about the “Plant response rating, Pigweed, Palmer” value [3, 14] of the same molecule?
A: Its value is 40.

Q: What about the “Plant response rating, Pigweed, Palmer” value [3, 17] of the same molecule?
A: Its value is 0.

Q: And the “Plant response rating, Pigweed, Palmer” value [3, 19]?
A: The value was 70.

Q: What about the “Plant response rating, Surinam Grass” value [9, 20] of the same molecule?
A: Its value is 65.

Q: And the “Plant response rating, Surinam Grass” value [9, 25]?
A: The value was 85.

Q: What about the “Plant response rating, Surinam Grass” value [9, 21] of the same molecule?
A: The value was 10.

Q: What about the “Plant response rating, Surinam Grass” value [9, 23] of the same molecule?
A: Its value is 90.

Q: What about the “Plant response rating, Velvetleaf” value [10, 20] of the same molecule?
A: Its value is 65.

Q: And the “Plant response rating, Velvetleaf” value [10, 25]?
A: The value was 80.

Q: What about the “Plant response rating, Velvetleaf” value [10, 21] of the same molecule?
A: Its value is 0.

Q: And the “Plant response rating, Velvetleaf” value [10, 23]?
A: The value was 100.

Q: And the “Plant response rating, Waterhemp” value [4, 11]?
A: Its value is 75.

Q: What about the “Plant response rating, Waterhemp” value [4, 15] of the same molecule?
A: The value was 65.

Q: And the “Plant response rating, Waterhemp” value [4, 12]?
A: The value was 80.

Q: And the “Plant response rating, Waterhemp” value [4, 24]?
A: The value was 85.

Q: And the “Plant response rating, Waterhemp” value [4, 16]?
A: The value was 85.

Q: What about the “Plant response rating, Waterhemp” value [4, 14] of the same molecule?
A: Its value is 70.

Q: And the “Plant response rating, Waterhemp” value [4, 17]?
A: The value was 0.

Q: What about the “Plant response rating, Waterhemp” value [4, 19] of the same molecule?
A: The value was 100.
